Experimental data taken from PubChem BioAssay AID1918935 (Molecular Pharmacology Branch, DTP, NCI, 2023).

Test system: 324938-238-R-J1-PDC complex spheroid viability
Test: Anticancer human tumor 324938-238-R-J1-PDC patient-derived bladder carcinoma cell line growth inhibition
Details: for IC50: curve of first compound; for viability, T/C: stronger effect = lower value
Procedure, shortened: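 Complex spheroids of tumor cells with HUVEC and human MSCs, exposed to iadademstat combined with other agents. Each agent tested in half-log steps from near clinical Cmax (else 10 microM top), DMSO ≤0.25%.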

[1] = second compound 0.1 µM, first compound 0.00949 µM
[2] = second compound 0.1 µM, first compound 0.03 µM
[3] = second compound 0.1 µM, first compound 0.0949 µM
[4] = second compound 0.1 µM, first compound 0.3 µM
[5] = second compound 0.316 µM, first compound 0.00949 µM
[6] = second compound 0.316 µM, first compound 0.03 µM
[7] = second compound 0.316 µM, first compound 0.0949 µM
[8] = second compound 0.316 µM, first compound 0.3 µM
[9] = second compound 1 µM, first compound 0.00949 µM
[10] = second compound 1 µM, first compound 0.03 µM
[11] = second compound 1 µM, first compound 0.0949 µM
[12] = second compound 1 µM, first compound 0.3 µM
[13] = second compound 3.16 µM, first compound 0.00949 µM
[14] = second compound 3.16 µM, first compound 0.03 µM
[15] = second compound 3.16 µM, first compound 0.0949 µM
[16] = second compound 3.16 µM, first compound 0.3 µM
[17] = second compound 10 µM, first compound 0.00949 µM
[18] = second compound 10 µM, first compound 0.03 µM
[19] = second compound 10 µM, first compound 0.0949 µM
[20] = second compound 10 µM, first compound 0.3 µM
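Further: spheroids also contain HUVEC and human MSCs and agents combined with iadademstat; spheroids exposed to agents for 7 days before readout.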

## CCc1c2c(nc3ccc(O)cc13)-c1cc3c(c(=O)n1C2)COC(=O)[C@]3(O)CC + NC1CCC(NC2CC2c2ccccc2)CC1
Second compound 0.1 µM
  IC50: < 0.949 nM
Second compound 0.316 µM
  IC50: < 0.949 nM
Second compound 1 µM
  IC50: < 0.949 nM
Second compound 3.16 µM
  IC50: < 0.949 nM
Second compound 10 µM
  IC50: < 0.949 nM
Second compound 0.1 µM, first compound 0.000949 µM
  viability, T/C: 8.91%
Second compound 0.1 µM, first compound 0.003 µM
  viability, T/C: 8.28%
[1]
  viability, T/C: 5.05%
[2]
  viability, T/C: 2.05%
[3]
  viability, T/C: 0.06%
[4]
  viability, T/C: 0.13%
Second compound 0.316 µM, first compound 0.000949 µM
  viability, T/C: 7.86%
Second compound 0.316 µM, first compound 0.003 µM
  viability, T/C: 10.2%
[5]
  viability, T/C: 6.24%
[6]
  viability, T/C: 2.68%
[7]
  viability, T/C: 0.06%
[8]
  viability, T/C: 0.11%
Second compound 1 µM, first compound 0.000949 µM
  viability, T/C: 8.46%
Second compound 1 µM, first compound 0.003 µM
  viability, T/C: 8.97%
[9]
  viability, T/C: 6.82%
[10]
  viability, T/C: 2.81%
[11]
  viability, T/C: 0.06%
[12]
  viability, T/C: 0.1%
Second compound 3.16 µM, first compound 0.000949 µM
  viability, T/C: 9.74%
Second compound 3.16 µM, first compound 0.003 µM
  viability, T/C: 9.76%
[13]
  viability, T/C: 7.3%
[14]
  viability, T/C: 2.95%
[15]
  viability, T/C: 0.08%
[16]
  viability, T/C: 0.11%
Second compound 10 µM, first compound 0.000949 µM
  viability, T/C: 9.49%
Second compound 10 µM, first compound 0.003 µM
  viability, T/C: 9.84%
[17]
  viability, T/C: 8.1%
[18]
  viability, T/C: 2.75%
[19]
  viability, T/C: 0.08%
[20]
  viability, T/C: 0.13%

## Nc1ccccc1NC(=O)c1ccc(CNC(=O)OCc2cccnc2)cc1 + NC1CCC(NC2CC2c2ccccc2)CC1
Second compound 0.1 µM
  IC50: 412 nM
Second compound 0.316 µM
  IC50: 390 nM
Second compound 1 µM
  IC50: 465 nM
Second compound 3.16 µM
  IC50: 363 nM
Second compound 10 µM
  IC50: 375 nM
[1]
  viability, T/C: 92%
[2]
  viability, T/C: 81.6%
[3]
  viability, T/C: 68.5%
[4]
  viability, T/C: 54.4%
Second compound 0.1 µM, first compound 0.949 µM
  viability, T/C: 39.9%
Second compound 0.1 µM, first compound 3 µM
  viability, T/C: 17.2%
[5]
  viability, T/C: 84.3%
[6]
  viability, T/C: 88%
[7]
  viability, T/C: 67.6%
[8]
  viability, T/C: 55%
Second compound 0.316 µM, first compound 0.949 µM
  viability, T/C: 34.6%
Second compound 0.316 µM, first compound 3 µM
  viability, T/C: 12.9%
[9]
  viability, T/C: 79%
[10]
  viability, T/C: 76.2%
[11]
  viability, T/C: 73.3%
[12]
  viability, T/C: 54.5%
Second compound 1 µM, first compound 0.949 µM
  viability, T/C: 39.2%
Second compound 1 µM, first compound 3 µM
  viability, T/C: 14.9%
[13]
  viability, T/C: 81.5%
[14]
  viability, T/C: 72.4%
[15]
  viability, T/C: 62%
[16]
  viability, T/C: 54.9%
Second compound 3.16 µM, first compound 0.949 µM
  viability, T/C: 37.9%
Second compound 3.16 µM, first compound 3 µM
  viability, T/C: 16%
[17]
  viability, T/C: 76.8%
[18]
  viability, T/C: 68.9%
[19]
  viability, T/C: 68.2%
[20]
  viability, T/C: 50.5%
Second compound 10 µM, first compound 0.949 µM
  viability, T/C: 37.8%
Second compound 10 µM, first compound 3 µM
  viability, T/C: 12.4%

## O=C(c1cc(Cc2n[nH]c(=O)c3ccccc23)ccc1F)N1CCN(C(=O)C2CC2)CC1 + NC1CCC(NC2CC2c2ccccc2)CC1
Second compound 0.1 µM
  IC50: 2900 nM
Second compound 0.316 µM
  IC50: 2760 nM
Second compound 1 µM
  IC50: 3970 nM
Second compound 3.16 µM
  IC50: 2720 nM
Second compound 10 µM
  IC50: 2480 nM
Second compound 0.1 µM, first compound 0.0316 µM
  viability, T/C: 80.8%
Second compound 0.1 µM, first compound 0.1 µM
  viability, T/C: 80.9%
Second compound 0.1 µM, first compound 0.316 µM
  viability, T/C: 86.4%
Second compound 0.1 µM, first compound 1 µM
  viability, T/C: 68.1%
Second compound 0.1 µM, first compound 3.16 µM
  viability, T/C: 49.9%
Second compound 0.1 µM, first compound 10 µM
  viability, T/C: 41.5%
Second compound 0.316 µM, first compound 0.0316 µM
  viability, T/C: 78.7%
Second compound 0.316 µM, first compound 0.1 µM
  viability, T/C: 82.7%
Second compound 0.316 µM, first compound 0.316 µM
  viability, T/C: 83.7%
Second compound 0.316 µM, first compound 1 µM
  viability, T/C: 64.4%
Second compound 0.316 µM, first compound 3.16 µM
  viability, T/C: 49.8%
Second compound 0.316 µM, first compound 10 µM
  viability, T/C: 36.5%
Second compound 1 µM, first compound 0.0316 µM
  viability, T/C: 77.7%
Second compound 1 µM, first compound 0.1 µM
  viability, T/C: 71.3%
Second compound 1 µM, first compound 0.316 µM
  viability, T/C: 80%
Second compound 1 µM, first compound 1 µM
  viability, T/C: 69.3%
Second compound 1 µM, first compound 3.16 µM
  viability, T/C: 53.3%
Second compound 1 µM, first compound 10 µM
  viability, T/C: 37.9%
Second compound 3.16 µM, first compound 0.0316 µM
  viability, T/C: 73.2%
Second compound 3.16 µM, first compound 0.1 µM
  viability, T/C: 74.1%
Second compound 3.16 µM, first compound 0.316 µM
  viability, T/C: 73.2%
Second compound 3.16 µM, first compound 1 µM
  viability, T/C: 71%
Second compound 3.16 µM, first compound 3.16 µM
  viability, T/C: 46.9%
Second compound 3.16 µM, first compound 10 µM
  viability, T/C: 39.6%
Second compound 10 µM, first compound 0.0316 µM
  viability, T/C: 70.6%
Second compound 10 µM, first compound 0.1 µM
  viability, T/C: 65.8%
Second compound 10 µM, first compound 0.316 µM
  viability, T/C: 77%
Second compound 10 µM, first compound 1 µM
  viability, T/C: 59.3%
Second compound 10 µM, first compound 3.16 µM
  viability, T/C: 49.9%
Second compound 10 µM, first compound 10 µM
  viability, T/C: 45.1%
